Series [1] concerns P. falciparum parasites with PfFNT G21E mutation. In words: EC50 determination by flow cytometry, drug-selected parasites with PfFNT G21E. In kind it is cell-based, Plasmodium falciparum. Particulars: parasites with G21E amino acid change vs 3D7 wild-type. Here is the method:
(§1) P. falciparum parasites, 3D7, were cultured in RPMI 1640 medium supplemented with 0.5% Albumax with 0+ erythrocytes (University Medical Center Hamburg-Eppendorf, Hamburg, Germany) at a 5% hematocrit at 37°C in an atmosphere containing 5% CO2, 1% O2, and 94% N2 under standard conditions ([31]). To obtain resistant parasites, 50 mL of parasite culture, starting with 5 × 10^8 to 6 × 10^8 parasites, were exposed to 3 × IC50 of either MMV007839 or BH267.meta until parasitemia was established again (around 2 weeks). For sequencing of the fnt gene, genomic DNA from the susceptible and resistant P. falciparum parasite lines was obtained from 5 mL of culture using the QIAamp DNA minikit (Qiagen, Hilden, Germany). The primer sequences used to sequence the entire fnt gene are available in Table S2. To determine the EC50, asynchronous parasites (0.5% to 1% starting parasitemia) were exposed to serial dilutions of the drug and grown for 2 days with one change of medium (including the appropriate concentration of drug), after which the parasitemia was determined using an LSR II FACS (BD Biosciences, Franklin Lakes, NJ) as previously described ([32]). The data were analyzed in GraphPad Prism to determine EC50 values.

A further series deals with P. berghei. In words: 4-day Peters' test, P. berghei-infected mouse malaria model. Particulars: for Activity (%) / Survival / Parasite-free mice (n/total): once per day on 4 consecutive days. In kind it is in vivo. Here is the method: Finally, we tested BH267.meta in vivo in a P. berghei-infected mouse malaria model. For comparison, we included the established antimalarials chloroquine, mefloquine, and artesunate in the assay. Efficacy was determined by a 4-day Peters’ test ([20], [21]) after oral administration of 30, 10, and 3 mg kg^−1 day^−1 for each antimalarial for four consecutive days. At 4 × 3 mg kg^−1 treatment with BH267.meta, parasitemia was at 0.2% after 4 days, while doses of 10 mg kg^−1 and higher decreased the parasitemia below the limit of quantitation (LOQ) of 0.1%. […] Artesunate yielded lower activity at 4 × 3 mg kg^−1. The average survival after BH267.meta treatment was similar to that after artesunate treatment and ranged from 8.0 d (3 mg kg^−1) to 13.0 d (30 mg kg^−1) due to recurring parasitemia (Table 1).
(§2) In vivo efficacy of BH267.meta against P. berghei was determined as previously described ([20], [21]). Mice were infected with a GFP-transfected P. berghei ANKA strain (donated by A. P. Waters and C. J. Janse, Leiden University, Leiden, The Netherlands), and parasitemia was determined using standard flow cytometry techniques. The detection limit was 0.1%, i.e., 1 parasite in 1,000 erythrocytes. Activity was calculated as the difference between the mean parasitemia for the control and treated groups (n = 3, each) expressed relative to the control group. BH267.meta was dissolved (3 mg kg ^−1 doses) or suspended (all higher doses) in 70/30 Tween 80/ethanol, diluted 10-fold with water, and administered orally as four consecutive daily doses (4, 24, 48, and 72 h after infection). […] different doses of BH267.meta were analyzed (30, 10, and 3 mg kg ^−1). In vivo efficacy against P. falciparum was conducted at The Art of Discovery, Derio, Spain according to the standard assay previously described ([22], [23]). Animal experiments against P. berghei were carried out at the Swiss Tropical and Public Health Institute and adhered to local and national regulations of laboratory animal welfare in Switzerland (awarded permission no. 1731). Protocols are regularly reviewed and revised following approval by the local authority (Veterinäramt Basel Stadt).

In a further series the test system is P. falciparum. In words: P. falciparum SCID mouse model. In kind it is in vivo. Particulars: 50 mg kg−1 d−1 oral for four consecutive days, single animal; LOQ 0.01%. As to the method: In addition to the P. berghei efficacy assessment, we also evaluated BH267.meta in a P. falciparum severe combined immunodeficient (SCID) mouse model as previously described ([22], [23]). Efficacy was assessed following administration of 50 mg kg^−1 d^−1 for four consecutive days to a single animal (Fig. 7).
as §2, with “Animal experiments against P. berghei were carried out at the Swiss Tropical and Public Health Institute and adhered to local and national regulations of laboratory animal welfare in Switzerland (awarded permission no. 1731). Protocols are regularly reviewed and revised following approval by the local authority (Veterinäramt Basel Stadt).” left out

Series [2] relates to P. falciparum 3D7 blood stages. In words: Stage-specific action of BH267.meta on synchronized parasites. In kind it is cell-based, Plasmodium falciparum. The settings on record: IC90 of BH267.meta added at ring, trophozoite or schizont stage. Here is the method: Asynchronous cultures containing ~2% schizonts were purified using a 60% Percoll gradient and split into 4 tubes containing […] fresh blood and culture medium, shaken at 37°C for 30 min at 800 rpm to permit newly released merozoites to invade red blood cells, and then transferred into four 5-mL culture dishes. […] The cultures were maintained with daily medium changes and replenishment of IC90 BH267.meta when drug treatment had already commenced for a culture. Giemsa smear and flow cytometry were performed as described previously ([32]), and samples were taken at regular intervals (daily or every 12 h).

In series [3] the test system is P. falciparum parasite culture. Also on record: method as in PMID 32816478. The settings on record: read-out: effectiveness in parasite culture; cited from earlier work.
In series [4] the test system is P. falciparum parasites with PfFNT V196L mutation. Description: EC50 determination by flow cytometry, drug-selected parasites with PfFNT V196L. In kind it is cell-based, Plasmodium falciparum. The settings on record: V196L mutation vs 3D7 wild-type. As to the method:
as §1
Background: A flow cytometer gives signals particle by particle.

Consider `O=C(/C=C(\O)C(F)(F)C(F)(F)F)c1cccnc1` [BH267.meta], for which the “reduction in sensitivity compared to the 3D7 parasites” value (“reduction in sensitivity” for short) in series [1] is recorded as “no alteration in the response”. Further, the figures for the “Activity (%)” value in the series with P. berghei (3 mg kg−1 day−1 oral), in the series on P. berghei (10 mg kg−1 day−1 oral) and with P. berghei (30 mg kg−1 day−1 oral) were 99.7%, 99.9% and 99.8%, respectively. In addition, the “Survival” value was determined as 8.0 days with P. berghei (3 mg kg−1 day−1 oral), 10.7 days with P. berghei (10 mg kg−1 day−1 oral) and 13.0 days in the series on P. berghei (30 mg kg−1 day−1 oral). Moreover, the “parasitemia after 4 days” value with P. berghei (4 × 3 mg kg−1 oral) worked out at 0.2%. Besides, the efficacy in the series with P. berghei (all tested doses (30, 10, 3 mg kg−1 day−1, 4 days oral)) is not below 99.7%. Moreover, the parasitemia with P. berghei (doses of 10 mg kg−1 and higher, 4 days oral, LOQ 0.1%) is reported as less than 0.1%; in the series with P. falciparum, less than 0.01%. The “symptoms or side effects elicited by the compound” value in the series on P. berghei (mice under treatment, 3-30 mg kg−1 day−1 oral for 4 days) is on record as “free of symptoms or side effects”. Also, the activity in mice in the series on P. berghei (mouse malaria models) is given as more than 99%. In addition, the blood stage affected result in series [2] is “specifically affects the trophozoite stage”. In addition, in series [3], the EC50 is 240 nM.
Turning to `COc1ccc(C(=O)/C=C(\O)C(F)(F)C(F)(F)F)cc1` [BH296], the “reduction in sensitivity” value in series [1] is on record as 3.0 fold. For the same molecule, the “fold increased IC50” value in series [4] worked out at 7.4 fold.
Take `C[C@H]1[C@H](OC(=O)CCC(=O)O)O[C@@H]2O[C@@]3(C)CC[C@H]4[C@H](C)CC[C@@H]1[C@@]24OO3` [Artesunate, artesunate]: the “Activity (%)” value in the series with P. berghei (3 mg kg−1 day−1 oral) is recorded as 85.0%; in the series on P. berghei (10 mg kg−1 day−1 oral) it was 99.1%; in the series with P. berghei (30 mg kg−1 day−1 oral), 99.0%. Also, the results for the “Survival” value with P. berghei (3 mg kg−1 day−1 oral), with P. berghei (10 mg kg−1 day−1 oral) and in the series with P. berghei (30 mg kg−1 day−1 oral) were 8.8 days, 8.1 days and 9.2 days, respectively.
Take `CCN(CC)CCCC(C)Nc1ccnc2cc(Cl)ccc12` (centres unmarked) [Chloroquine, chloroquine]: the “Activity (%)” value in the series on P. berghei (3 mg kg−1 day−1 oral) came out at 99.0%; in the series with P. berghei (10 mg kg−1 day−1 oral), 99.9%; in the series on P. berghei (30 mg kg−1 day−1 oral), 99.9%. For the same molecule, the “Survival” value stood at 11.0 days in the series on P. berghei (3 mg kg−1 day−1 oral), 15.5 days with P. berghei (10 mg kg−1 day−1 oral) and 21.2 days in the series on P. berghei (30 mg kg−1 day−1 oral).
For `OC(c1cc(C(F)(F)F)nc2c(C(F)(F)F)cccc12)C1CCCCN1` (centres unmarked) [Mefloquine, mefloquine], in the series with P. berghei (3 mg kg−1 day−1 oral), the “Activity (%)” value worked out at 93.0% and the “Survival” value was found to be 13.0 days. In the series on P. berghei (10 mg kg−1 day−1 oral), the “Activity (%)” value was 99.9%, the “Parasite-free mice (n/total)” value is 1/5 and the “Survival” value came out at 21.0 days. Moreover, in the series with P. berghei (30 mg kg−1 day−1 oral), the “Activity (%)” value amounted to 99.9%, the “Parasite-free mice (n/total)” value is 4/5 and the “Survival” value turned out to be 29.1 days.
Regarding `COc1ccc2c(c1)OC(O)(C(F)(F)C(F)(F)F)CC2=O` (centres unmarked) [MMV007839], the “reduction in sensitivity” value in series [1] came out at 8.4 fold.

Source of the values: paper PMC10433847, “The Plasmodium Lactate/H^+ Transporter PfFNT Is Essential and Druggable In Vivo” (Antimicrobial Agents and Chemotherapy, 2023).
